Measurements taken from patent US6375943B1, “Attractant for the mediterranean fruit fly, the method of preparation and method of use” (The United States of America as represented by the …, priority 2000, dated 2002).

Tests used:
[1] = system: Mediterranean fruit fly, Ceratitis capitata (Wiedemann); assay: Longevity field test over three weeks, Jackson traps, released sterile flies; format: in vivo; details: for Male capture compared with other treatments: 10 mg dose
Procedure: (§1) Insects: Sterilized Mediterranean fruit fly pupae were obtained from the USDA-ARS-USPBARC rearing facility in Honolulu, Hi. The flies were reared on an artificial diet (Tanaka, N., et al., J. Econ. Entomol., 62: 967-968 (1969)) under standard mass-rearing conditions and sterilized as pupae at a dose of 150 GY and two days before emergence. Flies were shipped by air to Hilo where 150 ml of pupae (both sexes) was placed in 15-gallon Rubbermaid action packers modified by screened panels on the bottoms and sides of the units. The emerged flies were given water, sugar and hydrolyzed yeast protein. Flies were 2-9 days old when tested. Wild populations of medflies were present in coffee orchards on the island of Kauai.
(§2) Bioassays: All tests were conducted using tent-shaped Jackson traps with open ends, a removable sticky insert and a ½ inch cotton wick containing the test chemical (Harris, E. J., et al., J. Econ. Entomol., 64: 62-65 (1971)). All tests were conducted using a randomized complete block design having five traps of each treatment in the block. The tests were replicated at least 5 times.
Longevity tests: Preliminary tests to determine the effectiveness of the different chemical compounds over time were also carried out using sterile flies released in a macadamia nut orchard. In these tests all compounds were applied to the cotton wick at a 10 mg dose. 100 μl of each compound was placed on a ½ inch wick inside a Jackson trap. Traps were serviced weekly for three weeks. Inserts were changed each week and new flies were released but the same compounds were left in the field to age.
(§3) Data analysis: Both male and female medfly were counted on the sticky inserts. […] Data was subjected to analysis of variance (Proc GLM) and the Turkey's test for separation of means values. Significant differences in response were determined at the P=0.05 level. Data were not transformed prior to analysis. Statistical analysis was performed on SAS ver 6.12 (SAS Institute, Cary, N.C.) using a PC. Values presented on the tables are mean values SEM.

Mediterranean fruit fly = details: field studies from the literature; cited from earlier work
[2] = system: wild Mediterranean fruit flies; assay: Wild fly response to ceralure B1 enantiomers, first experiment, Kauai coffee; details: for Male capture compared with other treatments: 10 mg dosage; for Response of wild flies, Mean ± s.e.: 10 mg, traps serviced every two days
[3] = system: Mediterranean fruit fly, Ceratitis capitata (Wiedemann); assay: Dose-response field test, Jackson traps, released sterile flies; format: in vivo; details: for Male capture compared with other treatments: 1 mg, 0.1 mg and 0.01 mg dosages; for Mean male fly capture ± s.e.: 48 hours, released sterile flies
Procedure: Field attraction of Mediterranean fruit fly, Ceratitis capitata (Wiedemann), to stereoselectively synthesized enantiomers of the ceralure B1 isomer: The attractancy of the two newly synthesized ceralure B1 enantiomers was evaluated against laboratory and wild populations of medfly and the response to these compounds was compared to commercially available trimedlure and ceralure. Field tests using released sterile flies on the island of Hawaii or field tests against wild populations of medfly in commercial coffee plantations on the island of Kauai were carried out to compare the attractancy, dose response and initial persistence of the new molecules and a racemic (50:50) mixture of the two.
as §1, §2
Dose-response tests: 10 mg, 1 mg, 0.1 mg and 0.01 mg doses of each compound (in 100 μl acetone) were tested on ½ inch cotton wicks in Jackson traps. Acetone was used in the control. The treatments were ceralure B1 (1S,2S,5S), ceralure B1 (Racemic), ceralure B1 (1R,2R,5R), trimedlure, ceralure and a blank control. Traps were placed in a macadamia nut orchard on the island of Hawaii near the town of Hilo. Traps were separated by every other tree in every row (approximately 15 meters between traps). Flies (approximately 6,000) were then released by slowly walking between rows while allowing the flies to escape from the opened action packer. Traps were left out for 48 hours after which the traps were collected and brought back to the lab for analysis. Both males and females were counted on the sticky inserts.
as §3

[4] = system: wild Mediterranean fruit flies; assay: Wild fly response, second experiment against standard 2 g trimedlure plug; details: for Male capture compared with other treatments: after 48 hours, 10 mg versus 2 g trimedlure plug
[5] = known in the literature; cited from earlier work
[6] = Week 1, 10 mg dose, released sterile flies
[7] = Week 2, 10 mg dose, same lure aged in field
[8] = Week 3, 10 mg dose, same lure aged in field
[9] = dose .01 mg on cotton wick, N = 25

CCOC(=O)[C@H]1C[C@@H](I)CC[C@@H]1C (racemic) [B1 Racemic, Ethyl(1SR,2SR,5SR)-5-iodo-2-methylcyclohexane-1-carboxylate]
Male fly capture, mean ± SEM [1, 6]: 274.5 ± 21.8 a
Male fly capture, mean ± SEM [1, 7]: 79.6 ± 33.3 a
Male fly capture, mean ± SEM [1, 8]: 4.7 ± 3.7 a
Male capture compared with other treatments ([1]; after one week): captured significantly more males than B1 (1S,2S,5S), commercial trimedlure, commercial ceralure and control
Male capture compared with other treatments ([1]; after two weeks): captured significantly more males than any other compound
Relative attractiveness toward the Mediterranean fruit fly (Mediterranean fruit fly): most active
Male capture compared with other treatments [2]: significantly higher captures than the B1 (1S,2S,5S) and commercial ceralure
Response of wild flies, Mean ± s.e. [2]: 70.8 ± 10 b
Male capture compared with other treatments ([3]; 10 mg): captured significantly more male medflies than B1 (1S,2S,5S), commercial trimedlure, commercial ceralure and (acetone) control
Mean male fly capture ± s.e. ([3]; dose 1 mg on cotton wick): 376.8 ± 36.7 a
Mean male fly capture ± s.e. ([3]; dose 10 mg on cotton wick): 365.53 ± 33.7 b
Mean male fly capture ± s.e. [3, 9]: 111 ± 12.2 a
Mean male fly capture ± s.e. ([3]; dose .01 mg on cotton wick, N = 25, listed as B1 racemic): 111
Mean male fly capture ± s.e. ([3]; dose .1 mg on cotton wick): 179.67 ± 33.5 b

C[C@H]1C[C@H](Cl)CC[C@@H]1C(=O)OC(C)(C)C (relative stereo) [(1S, 2S, 4R), 1,1-dimethylethyl-cis-4-chloro-trans-2-methylcyclohexane-1-carboxylate]
Relative attractiveness toward the Mediterranean fruit fly (Mediterranean fruit fly): most attractive

CCOC(=O)[C@@H]1C[C@H](I)CC[C@H]1C [B1 1R,2R,5R, Ethyl (1R,2R,5R)-5-iodo-2-methylcyclohexane-1-carboxylate]
Male fly capture, mean ± SEM [1, 6]: 338.9 ± 40.1 a
Male fly capture, mean ± SEM [1, 7]: 69.3 ± 24.9 ab
Male fly capture, mean ± SEM [1, 8]: .3 ± .3 a
Male capture compared with other treatments ([1]; after one week): captured significantly more males than B1 (1S,2S,5S), commercial trimedlure, commercial ceralure and control
Male capture compared with other treatments [4]: captured the most male medflies but not significantly more than the B1 racemic mixture and commercial trimedlure
Male capture compared with other treatments ([4]; listed as B1 (1R,2R,5R) enantiomer): caught more wild flies after two days than the TML plug
Flies captured as share of the TML plug baited trap ([4]; after an additional 5 days, 10 mg versus 2 g TML plug): approximately 33%
Male capture compared with other treatments [2]: captured significantly more males than the B1 racemic mixture
Response of wild flies, Mean ± s.e. [2]: 104.2 ± 13.7 a
Dose compared to trimedlure to achieve the same trap capture ([3]; 0.01 mg versus trimedlure 10 mg, mean values from Table 1): 1000 times less
Male capture compared with B1 racemic mixture ([3]; 10 mg, 1 mg and 0.1 mg doses): captured significantly more males than the B1 racemic mixture
Male capture compared with other treatments ([3]; 10 mg): captured significantly more male medflies than B1 (1S,2S,5S), commercial trimedlure, commercial ceralure and (acetone) control
Mean male fly capture ± s.e. ([3]; dose 1 mg on cotton wick): 473.07 ± 56.6 a
Mean male fly capture ± s.e. ([3]; dose 10 mg on cotton wick): 487.27 ± 33 a
Mean male fly capture ± s.e. [3, 9]: 117 ± 14.1 a
Mean male fly capture ± s.e. ([3]; dose .01 mg on cotton wick, N = 25, listed as 1R,2R,5R enantiomer): 117
Mean male fly capture ± s.e. ([3]; dose .1 mg on cotton wick): 303.07 ± 34.5 a
Activity relative to trimedlure at similar doses ([3]; male capture compared to trimedlure, similar doses): 7-10 times

CCOC(=O)[C@H]1C[C@@H](I)CC[C@@H]1C [B1 1S,2S,5S, Ethyl(1S, 2S, 5S)-5-iodo-2-methylcyclohexane-1-carboxylate]
Male fly capture, mean ± SEM [1, 6]: 135.7 ± 33.4 b
Male fly capture, mean ± SEM [1, 7]: 5.5 ± 4.5 b
Male fly capture, mean ± SEM [1, 8]: 0 ± 0 a
Response of wild flies, Mean ± s.e. [2]: 40.5 ± 8.3 c
Mean male fly capture ± s.e. ([3]; dose 1 mg on cotton wick): 173 ± 42.2 b
Mean male fly capture ± s.e. ([3]; dose 10 mg on cotton wick): 151.80 ± 25.3 c
Mean male fly capture ± s.e. [3, 9]: 38.3 ± 6.5 b
Mean male fly capture ± s.e. ([3]; dose .1 mg on cotton wick): 57.20 ± 8.3 c

CC1CC(Cl)CCC1C(=O)OC(C)(C)C (stereo not drawn) [TML-C, 1,1-dimethylethyl-cis-4-chloro-trans-2-methylcyclohexane-1-carboxylate]
Relative attractiveness toward the Mediterranean fruit fly (Mediterranean fruit fly): most active

ethyl 4 (and 5)-iodo-2-methylcyclohexane-1-carboxylate [Com. Ceralure, reference compound]
Male fly capture, mean ± SEM [1, 6]: 135 ± 16.8 b
Male fly capture, mean ± SEM [1, 7]: 3.1 ± 2.2 b
Male fly capture, mean ± SEM [1, 8]: .47 ± .27 a
Relative attractiveness toward the Mediterranean fruit fly (Mediterranean fruit fly): more persistent and potent attractant than TML
Response of wild flies, Mean ± s.e. [2]: 31.8 ± 4.4 c
Mean male fly capture ± s.e. ([3]; dose 1 mg on cotton wick): 65.07 ± 9.5 bc
Mean male fly capture ± s.e. ([3]; dose 10 mg on cotton wick): 170.47 ± 33.1 c
Mean male fly capture ± s.e. [3, 9]: 23.4 ± 6.3 bc
Mean male fly capture ± s.e. ([3]; dose .1 mg on cotton wick): 11.27 ± 4.1 c
Volatility compared with trimedlure [5]: less volatile than trimedlure
